According to US20100298141A1, “SUBSTITUTED PYRIDINE N-OXIDE HERBICIDES” (E. I. DU PONT DE NEMOURS AND COMPANY, priority 2007, published 2010):

What was measured:
[1] = test system: downy brome; test: Test C pre-/postemergence test; assay type: in vivo, Bromus tectorum
How it was run: (§1)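 Test chemicals were formulated with surfactant in a non-phytotoxic solvent and sprayed both on freshly planted seeds (preemergence) and on 1- to 4-leaf plants of 2–18 cm (postemergence). Flooded-paddy pots received compound directly into 3 cm of standing water, maintained for the test.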

[2] = test system: eastern black nightshade; test: Test C pre-/postemergence test; assay type: in vivo, Solanum ptycanthum; settings: Preemergence
How it was run: as §1

[3] = test system: rice; test: Test C flooded paddy test; assay type: in vivo, Oryza sativa; settings: Flood
How it was run: (§2)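 Compound was added to standing water 3 cm above soil, flood maintained, and plants held in a greenhouse before visual scoring against controls at 13 to 15 days.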

[4] = test system: wheat; test: Test A pre-/postemergence greenhouse test; assay type: in vivo, Triticum aestivum; settings: for Wheat plant response rating: 0 to 100 scale
How it was run: (§3)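 Pots of loam–sand soil sown with the test species are sprayed preemergence on the soil surface; emerged seedlings (1–2 leaves, 2–10 cm) are sprayed postemergence at the same time. The vehicle is a non-phytotoxic solvent mixture with surfactant. Injury is scored visually after ~10 d in greenhouse.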

[5] = test system: corn; test: Test C pre-/postemergence test; assay type: in vivo, Zea mays
How it was run: as §1

[6] = test system: wheat; test: Test C pre-/postemergence test; assay type: in vivo, Triticum aestivum; settings: Preemergence
How it was run: as §1

[7] = test system: yellow nutsedge; test: Test C pre-/postemergence test; assay type: in vivo, Cyperus esculentus; settings: Preemergence
How it was run: as §1

[8] = test system: catchweed bedstraw; test: Test C pre-/postemergence test; assay type: in vivo, Galium aparine; settings: Preemergence
How it was run: as §1

[9] = test system: woolly cupgrass; test: Test C pre-/postemergence test; assay type: in vivo, Eriochloa villosa; settings: Preemergence
How it was run: as §1

[10] = test system: duck salad; test: Test C flooded paddy test; assay type: in vivo, Heteranthera limosa; settings: Flood
How it was run: as §2

[11] = test system: velvetleaf; test: Test C pre-/postemergence test; assay type: in vivo, Abutilon theophrasti; settings: Preemergence
How it was run: as §1

[12] = test system: wild oat; test: Test C pre-/postemergence test; assay type: in vivo, Avena fatua; settings: Preemergence
How it was run: as §1

[13] = test system: redroot pigweed; test: Test A pre-/postemergence greenhouse test; assay type: in vivo, Amaranthus retroflexus; settings: for Pigweed plant response rating: 0 to 100 scale
How it was run: as §3

[14] = test system: giant foxtail; test: Test C pre-/postemergence test; assay type: in vivo, Setaria faberii; settings: Preemergence
How it was run: as §1

[15] = test system: morningglory; test: Test C pre-/postemergence test; assay type: in vivo, Ipomoea coccinea; settings: Preemergence
How it was run: as §1

[16] = test system: velvetleaf; test: Test A pre-/postemergence greenhouse test; assay type: in vivo, Abutilon theophrasti; settings: for Velvetleaf plant response rating: 0 to 100 scale
How it was run: as §3

[17] = test system: johnsongrass; test: Test C pre-/postemergence test; assay type: in vivo, Sorghum halepense; settings: Preemergence
How it was run: as §1

[18] = 62 g ai/ha, Preemergence, scale 0 to 100
[19] = Preemergence, 31 g ai/ha, scale 0 to 100 (0 no effect, 100 complete control)
[20] = preemergence, 125 g ai/ha, scale 0 (no effect) to 100 (complete control)
[21] = 31 g ai/ha, scale 0 to 100 (0 no effect, 100 complete control)
[22] = 62 g ai/ha, scale 0 to 100, 0 no effect, 100 complete control, 13 to 15 days
[23] = 125 g ai/ha, scale 0 to 100, 0 no effect, 100 complete control, 13 to 15 days
[24] = 250 g ai/ha, scale 0 to 100 (0 no effect, 100 complete control)
[25] = Postemergence, 125 g ai/ha, 0 is no effect, 100 is complete control
[26] = Postemergence, 500 g ai/ha, 0 is no effect, 100 is complete control
[27] = Preemergence, 125 g ai/ha, 0 no effect, 100 complete control
[28] = Preemergence, 500 g ai/ha, 0 to 100 scale where 0 is no effect and 100 is complete control

Cn1nc(C(F)(F)F)c(CS(=O)(=O)c2ccc(Cl)c[n+]2[O-])c1Cl [Compound 18]
Bromegrass, Downy plant response rating [1, 18]: 0
Plant response rating, Bromegrass, Downy [1, 19]: 0
Plant response rating (0 to 100), Bromegrass, Downy ([1]; Preemergence, 250 g ai/ha): 0
Bromegrass, Downy plant response rating [1, 20]: 0
Nightshade plant response rating ([2]; 62 g ai/ha, scale 0 to 100): 60
Plant response rating, Nightshade [2, 21]: 60
Plant response rating, Rice [3, 21]: 30
Plant response rating, Rice [3, 22]: 40
Plant response rating, Rice [3, 23]: 80
Plant response rating, Rice [3, 24]: 80
Wheat plant response rating [4, 25]: 0
Wheat plant response rating [4, 26]: 30
Wheat plant response rating [4, 27]: 0
Plant response rating, Wheat [4, 28]: 20
Corn plant response rating [5, 18]: 0
Plant response rating, Corn [5, 19]: 0
Plant response rating (0 to 100), Corn ([5]; Preemergence, 250 g ai/ha): 15
Corn plant response rating [5, 20]: 0
Wheat plant response rating ([6]; 62 g ai/ha, scale 0 to 100): 0
Plant response rating, Wheat [6, 21]: 0
Nutsedge, Yellow plant response rating ([7]; 62 g ai/ha, scale 0 to 100): 0
Plant response rating, Nutsedge, Yellow [7, 21]: 0
Galium plant response rating ([8]; 62 g ai/ha, scale 0 to 100): 0
Plant response rating, Galium [8, 21]: 0
Plant response rating (0 to 100), Galium ([8]; 250 g ai/ha): 90
Cupgrass, Woolly plant response rating ([9]; 62 g ai/ha, scale 0 to 100): 80
Plant response rating, Cupgrass, Woolly [9, 21]: 10
Plant response rating (0 to 100), Cupgrass, Woolly ([9]; 250 g ai/ha): 100
Plant response rating, Ducksalad [10, 21]: 0
Plant response rating, Ducksalad [10, 22]: 0
Plant response rating, Ducksalad [10, 23]: 80
Plant response rating, Ducksalad [10, 24]: 80
Velvetleaf plant response rating ([11]; 62 g ai/ha, scale 0 to 100): 0
Plant response rating, Velvetleaf [11, 21]: 0
Oat, Wild plant response rating ([12]; 62 g ai/ha, scale 0 to 100): 0
Plant response rating, Oat, Wild [12, 21]: 0
Pigweed plant response rating [13, 25]: 0
Pigweed plant response rating [13, 26]: 60
Pigweed plant response rating [13, 27]: 90
Plant response rating, Pigweed [13, 28]: 100
Foxtail, Giant plant response rating ([14]; 62 g ai/ha, scale 0 to 100): 85
Plant response rating, Foxtail, Giant [14, 21]: 65
Plant response rating (0 to 100), Foxtail, Giant ([14]; 250 g ai/ha): 100
Morningglory plant response rating ([15]; 62 g ai/ha, scale 0 to 100): 0
Plant response rating, Morningglory [15, 21]: 0
Velvetleaf plant response rating [16, 25]: 0
Velvetleaf plant response rating [16, 26]: 40
Velvetleaf plant response rating [16, 27]: 0
Plant response rating, Velvetleaf [16, 28]: 40
Johnsongrass plant response rating ([17]; 62 g ai/ha, scale 0 to 100): 100
Plant response rating, Johnsongrass [17, 21]: 5
Plant response rating (0 to 100), Johnsongrass ([17]; 250 g ai/ha): 100
